Measurements from ChEMBL document CHEMBL3508140 (2016).

Columns and labels:
[1] = Increase in serum triglycerides level following reference intravenous epirubicin at 1 mg.Kg-1 per week in rat; assay type: toxicity, organism-based, SD; conditions: in vivo
[2] = Mean residence time (MRT) of epirubicin following intrahepatic epirubicin solution at 1 mg.Kg-1 dose in rabbit; assay type: ADME, organism-based, Oryctolagus cuniculus; conditions: both, New Zealand White, blood, read-out: Mean residence time (converted)
[3] = Half-life of terminal elimination phase of epirubicin following intravenous epirubicin at 40-60 mg.m-2 dose in cancer patients; assay type: ADME, organism-based; conditions: human, plasma
[4] = Half-life of terminal elimination phase of epirubicin following intravenous epirubicin at 50 mg.m-2 dose in cancer patients; assay type: ADME, organism-based; conditions: human, plasma
[5] = AUC of epirubicin following intravenous epirubicin at 3 mg.Kg-1 dose in rabbit; assay type: ADME, organism-based, Oryctolagus cuniculus; conditions: both, New Zealand White, plasma
[6] = Initial phase half-life of epirubicin following intravenous epirubicin at 50 mg.m-2 dose in cancer patients; assay type: ADME, organism-based, Plasma; conditions: human, in vivo
[7] = Plasma clearance of epirubicin following intravenous epirubicin at 60 mg.m-2 dose in cancer patients; assay type: ADME, organism-based; conditions: human, in vivo
[8] = AUC of epirubicin following intravenous epirubicin solution at 1 mg.Kg-1 dose in rabbit; assay type: ADME, organism-based, Oryctolagus cuniculus; conditions: both, New Zealand White, blood
[9] = Terminal elimination of metabolite of epirubicin following intravenous epirubicin at 30-90 mg.m-2 dose in cancer patients; assay type: ADME, organism-based, Plasma; conditions: human, in vivo
[10] = Mean residence time (MRT) of epirubicin following intravenous epirubicin solution at 1 mg.Kg-1 dose in rabbit; assay type: ADME, organism-based, Oryctolagus cuniculus; conditions: both, New Zealand White, blood, read-out: Mean residence time (converted)
[11] = AUC of epirubicin following intravenous epirubicin emulsion at 1 mg.Kg-1 dose in rabbit; assay type: ADME, organism-based, Oryctolagus cuniculus; conditions: both, New Zealand White, blood
[12] = Recovery of epirubicin following intravenous epirubicin at 1.5 mg.Kg-1 dose in man; assay type: ADME, organism-based, Plasma; conditions: human, in vivo
[13] = Plasma clearance of epirubicin following intravenous epirubicin at 1 mg.Kg-1 dose in rabbit; assay type: ADME, organism-based, Oryctolagus cuniculus; conditions: both, New Zealand White
[14] = Mean AUC of epirubicin following intravenous epirubicin at 60 mg.m-2 dose in cancer patients; assay type: ADME, organism-based; conditions: human, plasma
[15] = Initial phase half-life of epirubicin following intravenous epirubicin at 25-35 mg.m-2 dose in cancer patients; assay type: ADME, organism-based, Plasma; conditions: human, in vivo
[16] = Volume of distribution of epirubicin following intrahepatic epirubicin solution at 1 mg.Kg-1 dose in rabbit; assay type: ADME, organism-based, Oryctolagus cuniculus; conditions: both, New Zealand White, blood
[17] = Urinary excretion of epirubicin following epirubicin at 75-90 mg.m-2 dose in cancer patients; assay type: ADME, organism-based; conditions: human, urine; read-out: Compound recovery
[18] = Urinary elimination of 4'-epiadriamycin following intravenous bolus 4'-epiadriamycin at 10 mg.Kg-1 dose in rat; assay type: ADME, organism-based; conditions: SD, urine, read-out: Compound recovery
[19] = Volume of distribution as steady state of epirubicin following intravenous epirubicin at 75-90 mg.m-2 dose in cancer patients; assay type: ADME, organism-based, Plasma; conditions: human, in vivo
[20] = Plasma clearance of epirubicin following intravenous epirubicin at 75-90 mg.m-2 dose in cancer patients; assay type: ADME, organism-based; conditions: human, in vivo
[21] = AUC values (0-48 h) of epirubicin in plasma following single intravenous epirubicin at 10 mg.Kg-1 dose in female mouse bearing colon tumor; assay type: ADME, organism-based, BALB/c; conditions: in vivo
[22] = Plasma clearance of epirubicin following intravenous epirubicin at 75 mg.m-2 dose in cancer patients; assay type: ADME, organism-based; conditions: human, in vivo
[23] = Detection of epirubicin in plasma following single intravenous epirubicin at 10 mg.Kg-1 dose in female mouse bearing colon tumor; assay type: ADME, organism-based, BALB/c; conditions: in vivo
[24] = Half-life of epirubicin in plasma following single intravenous epirubicin at 10 mg.Kg-1 dose in female mouse bearing colon tumor; assay type: ADME, organism-based; conditions: BALB/c
[25] = Terminal half-life of epirubicin following intrahepatic epirubicin solution at 1 mg.Kg-1 dose in rabbit; assay type: ADME, organism-based, Oryctolagus cuniculus; conditions: both, New Zealand White, blood
[26] = Cumulative biliary excretion of epirubicin and its metabolites following epirubicin at 50 mg.m-2 dose in cancer patients; assay type: ADME, organism-based, Bile; conditions: human, in vivo; at 50 mg/m2
[27] = Elimination of epirubicin following epirubicin at 60 mg.m-2 dose in cancer patients; assay type: ADME, organism-based, Plasma; conditions: human, in vivo, iv
[28] = Volume of distribution as steady state of epirubicin following intravenous epirubicin at 50 mg.m-2 dose in cancer patients; assay type: ADME, organism-based, Plasma; conditions: human, in vivo
[29] = Detection of epirubicin in heart following single intravenous epirubicin at 10 mg.Kg-1 dose in female mouse bearing colon tumor; assay type: ADME, organism-based, BALB/c; conditions: in vivo
[30] = Half-life of terminal elimination phase of epirubicin following intravenous epirubicin at 75 mg.m-2 dose in cancer patients; assay type: ADME, organism-based; conditions: human, plasma
[31] = Volume of distribution as steady state of epirubicin following intravenous epirubicin at 40-135 mg.m-2 dose in cancer patients; assay type: ADME, organism-based, Plasma; conditions: human, in vivo
[32] = (§1) Terminal half-life of epirubicinol following intravenous epirubicin at 3 mg.Kg-1 dose in rabbit; assay type: ADME, organism-based, Oryctolagus cuniculus, New Zealand White, Plasma; conditions: in vivo
[33] = Volume of distribution of epirubicin following intravenous epirubicin solution at 1 mg.Kg-1 dose in rabbit; assay type: ADME, organism-based, Oryctolagus cuniculus; conditions: both, New Zealand White, blood
[34] = Mean residence time (MRT) of epirubicin following intrahepatic epirubicin emulsion at 1 mg.Kg-1 dose in rabbit; assay type: ADME, organism-based, Oryctolagus cuniculus; conditions: both, New Zealand White, blood, read-out: Mean residence time (converted)
[35] = as §1; assay type: ADME, organism-based, Oryctolagus cuniculus, New Zealand White, Plasma; conditions: in vivo; remark: listed apart in the source
[36] = Plasma clearance of epirubicin following intravenous epirubicin at 20 mg.m-2 dose in cancer patients; assay type: ADME, organism-based; conditions: human, in vivo
[37] = Plasma clearance of epirubicin following intravenous epirubicin at 25-35 mg.m-2 dose in cancer patients; assay type: ADME, organism-based; conditions: human, in vivo
[38] = Plasma clearance of epirubicin following intravenous epirubicin at 50 mg.m-2 dose in cancer patients; assay type: ADME, organism-based; conditions: human, in vivo
[39] = Volume of distribution at steady state following intravenous epirubicin at 150 mg.m-2 dose in patients with advanced cancer; assay type: ADME, organism-based; conditions: human, plasma, read-out: Vss
[40] = Plasma clearance of epirubicin following intravenous epirubicin at 40-60 mg.m-2 dose in cancer patients; assay type: ADME, organism-based; conditions: human, in vivo
[41] = Cumulative urinary excretion of epirubicin and its metabolites following epirubicin at 50 mg.m-2 dose in cancer patients; assay type: ADME, organism-based, Urine; conditions: human, in vivo; at 50 mg/m2
[42] = Initial phase half-life of epirubicin following intravenous epirubicin at 70 mg.m-2 dose in cancer patients; assay type: ADME, organism-based, Plasma; conditions: human, in vivo
[43] = Percentage of epirubicin excreted unchanged in urine following epirubicin at 60 mg.m-2 dose in cancer patients; assay type: ADME, organism-based; conditions: human, at 60 mg/m2, read-out: Compound recovery
[44] = Incidence of persistent proteinuria following reference intravenous epirubicin at 1 mg.Kg-1 per week in rat; assay type: toxicity, organism-based, SD; conditions: in vivo
[45] = Plasma clearance of epirubicin following intrahepatic epirubicin solution at 1 mg.Kg-1 dose in rabbit; assay type: ADME, organism-based, Oryctolagus cuniculus, Blood; conditions: both, New Zealand White
[46] = Plasma clearance of epirubicin following intravenous epirubicin at 70 mg.m-2 dose in cancer patients; assay type: ADME, organism-based; conditions: human, in vivo
[47] = Volume of distribution as steady state of epirubicin following intravenous epirubicin at 60 mg.m-2 dose in cancer patients; assay type: ADME, organism-based, Plasma; conditions: human, in vivo
[48] = Intermediate phase half-life of epirubicin following intravenous epirubicin at 75-90 mg.m-2 dose in cancer patients; assay type: ADME, organism-based, Plasma; conditions: human, in vivo
[49] = Plasma clearance of epirubicin following intravenous epirubicin at 3 mg.Kg-1 dose in rabbit; assay type: ADME, organism-based, Oryctolagus cuniculus; conditions: both, New Zealand White
[50] = Terminal elimination of metabolite of epirubicin following intravenous epirubicin at 40-135 mg.m-2 dose in cancer patients; assay type: ADME, organism-based, Plasma; conditions: human, in vivo
[51] = Biliary excretion of epirubicin following epirubicin at 50 mg.m-2 dose in cancer patients; assay type: ADME, organism-based; conditions: human, bile, at 50 mg/m2, read-out: Compound recovery
[52] = Half-life of terminal elimination phase of epirubicin following intravenous epirubicin at 60 mg.m-2 dose in cancer patients; assay type: ADME, organism-based; conditions: human, plasma

SMILES: COc1cccc2c1C(=O)c1c(O)c3c(c(O)c1C2=O)C[C@@](O)(C(=O)CO)C[C@@H]3O[C@H]1C[C@H](N)[C@@H](O)[C@H](C)O1.Cl [EPIRUBICIN HYDROCHLORIDE]
- TRIG_CHANGE [1]: OUTCOME = Increased
- MRT [2]: 1.38 h
- half-life [3]: 15.3 h
- half-life [4]: 18.3 h
- AUC [5]: 620 ng·h/mL
- t1/2 [6]: 3.44 min
- CLp [7]: 43.1 L.h-1.m-2
- AUC [8]: 180 ng·h/mL
- t1/2 [9]: 32.2 h
- MRT [10]: 1.26 h
- AUC [11]: 134 ng·h/mL
- Compound recovery [12]: 46 10^-9M
- clearance [13]: 196 mL/min
- AUC [14]: 1500 ng·h/mL
- t1/2 [15]: 2.53 min
- Vd [16]: 129 L/kg
- dose excreted at 48 h [17]: 5.9%
- dose excreted [18]: 3.9%
- Vss [19]: 1432 L.m-2
- CLp [20]: 94.9 L.h-1.m-2
- AUC [21]: 179 nmol·min/mL
- CLp [22]: 29 L.h-1.m-2
- Compound recovery [23]: OUTCOME = Observed
- half-life [24]: 15.6 h
- half-life [25]: 1.14 h
- Radiolabel recovery [26]: 34.9%
- Elimination [27]: OUTCOME = Observed
- Vss [28]: 583 L.m-2
- Compound recovery [29]: OUTCOME = Observed
- half-life [30]: 44.8 h
- Vss [31]: 836 L.m-2
- t1/2 [32]: 1.66 h
- Vd [33]: 30.9 L/kg
- MRT [34]: 1.11 h
- t1/2 [35]: 33.94 h
- CLp [36]: 71.5 L.h-1.m-2
- CLp [37]: 41.5 L.h-1.m-2
- CLp [38]: 37 L.h-1.m-2
- Vd [39]: 21 L/kg
- CLp [40]: 50.1 L.h-1.m-2
- Radiolabel recovery [41]: 10.5%
- t1/2 [42]: 3.15 min
- dose excreted at 7 Day [43]: 6.4%
- Incidence [44]: OUTCOME = Observed
- CL/F [45]: 2700 mL/min
- CLp [46]: 84.2 L.h-1.m-2
- Vss [47]: 1272 L.m-2
- t1/2 [48]: 2.6 h
- clearance [49]: 323 mL/min
- t1/2 [50]: 18.1 h
- dose excreted at 96 h [51]: 21.9%
- half-life [52]: 31.4 h
